# Assay results as given in publication PMC4597782 (Nature, 2015).
# Columns and labels:
# [1] = biological target: T1, mGluR3 (Rattus norvegicus, UniProt P31422); type: biochemical; conditions: for average active state lifetime: 2 mM Ca2+ or 100 nM glutamate
# [2] = biological target: T2, mGluR2 (Rattus norvegicus, UniProt P31421); type: biochemical
# [3] = biological target: T2, mGluR2; type: cell-based; conditions: normalized to response to 1 mM glutamate
# [4] = biological target: mGluR2 WT/YADA heterodimer (Rattus norvegicus, UniProt P31421, D295A/Y216A); assay: smFRET of mGluR2 WT/YADA heterodimers; type: biochemical; conditions: near-saturating glutamate for the WT subunit
# [5] = biological target: mGluR2-YADA (Y216A and D295A) (Rattus norvegicus, UniProt P31421, D295A/Y216A); assay: smFRET of glutamate-insensitive mutant mGluR2-YADA; type: biochemical; conditions: 50 μM or 1 mM glutamate
# [6] = biological target: T1, mGluR3; type: cell-based; conditions: read-out: EC50 of glutamate-dependent decrease in ensemble FRET; HEK293T cells
# T1 sequence (P31422 23-879): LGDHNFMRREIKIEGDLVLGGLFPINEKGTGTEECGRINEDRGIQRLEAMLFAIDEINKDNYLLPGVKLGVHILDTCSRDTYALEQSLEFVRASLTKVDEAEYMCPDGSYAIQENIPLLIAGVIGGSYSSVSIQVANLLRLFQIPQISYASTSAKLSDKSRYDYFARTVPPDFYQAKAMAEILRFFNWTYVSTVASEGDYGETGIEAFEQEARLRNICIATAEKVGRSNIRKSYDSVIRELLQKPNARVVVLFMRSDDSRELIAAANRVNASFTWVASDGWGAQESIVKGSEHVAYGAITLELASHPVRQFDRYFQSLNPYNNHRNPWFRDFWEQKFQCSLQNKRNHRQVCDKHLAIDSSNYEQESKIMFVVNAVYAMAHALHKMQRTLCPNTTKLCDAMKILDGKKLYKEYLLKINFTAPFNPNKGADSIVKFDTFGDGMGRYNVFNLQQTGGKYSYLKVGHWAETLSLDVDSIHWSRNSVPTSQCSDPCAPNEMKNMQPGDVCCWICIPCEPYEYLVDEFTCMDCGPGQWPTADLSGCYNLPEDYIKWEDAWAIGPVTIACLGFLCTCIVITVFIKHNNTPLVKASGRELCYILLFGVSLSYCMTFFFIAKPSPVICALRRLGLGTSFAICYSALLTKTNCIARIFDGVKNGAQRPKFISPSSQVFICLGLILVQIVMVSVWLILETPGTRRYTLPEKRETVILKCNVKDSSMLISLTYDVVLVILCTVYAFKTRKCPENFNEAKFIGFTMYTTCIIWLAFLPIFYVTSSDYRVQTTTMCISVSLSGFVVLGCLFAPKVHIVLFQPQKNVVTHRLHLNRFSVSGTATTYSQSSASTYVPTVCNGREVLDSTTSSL
# T1 sequence (P31422 23-879): as above
# T2 sequence (P31421 19-872): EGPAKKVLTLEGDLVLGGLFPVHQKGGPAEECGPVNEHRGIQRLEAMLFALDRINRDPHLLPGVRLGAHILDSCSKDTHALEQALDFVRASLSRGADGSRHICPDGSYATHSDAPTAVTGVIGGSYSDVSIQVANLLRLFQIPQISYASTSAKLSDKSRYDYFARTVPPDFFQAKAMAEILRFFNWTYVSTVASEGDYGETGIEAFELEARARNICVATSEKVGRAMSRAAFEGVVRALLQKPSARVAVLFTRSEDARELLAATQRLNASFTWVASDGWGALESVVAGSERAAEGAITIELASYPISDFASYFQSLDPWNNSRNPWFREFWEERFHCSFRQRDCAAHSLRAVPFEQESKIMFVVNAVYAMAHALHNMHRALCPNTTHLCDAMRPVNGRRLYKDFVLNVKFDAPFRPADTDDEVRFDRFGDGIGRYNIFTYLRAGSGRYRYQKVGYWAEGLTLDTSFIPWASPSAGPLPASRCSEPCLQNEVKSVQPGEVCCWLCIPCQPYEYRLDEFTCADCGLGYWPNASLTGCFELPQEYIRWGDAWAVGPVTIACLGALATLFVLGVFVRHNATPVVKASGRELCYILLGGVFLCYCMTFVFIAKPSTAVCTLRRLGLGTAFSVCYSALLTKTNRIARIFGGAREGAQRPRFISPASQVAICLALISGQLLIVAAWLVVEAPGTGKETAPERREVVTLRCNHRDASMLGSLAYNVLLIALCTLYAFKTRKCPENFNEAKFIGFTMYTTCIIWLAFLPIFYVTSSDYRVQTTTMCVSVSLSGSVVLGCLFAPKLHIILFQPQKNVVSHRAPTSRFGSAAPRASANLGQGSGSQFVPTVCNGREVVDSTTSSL
# T2 sequence (P31421 19-872): as above
# mGluR2 WT/YADA heterodimer, sequence (P31421 19-872, stated change not applied): as the sequence (P31421 19-872) above
# mGluR2 WT/YADA heterodimer, sequence (P31421 19-872 Y216A/D295A): as the sequence (P31421 19-872) above, with Y198A, D277A counted along it
# mGluR2-YADA (Y216A and D295A), sequence (P31421 19-872 Y216A/D295A): as the sequence (P31421 19-872) above, with Y198A, D277A counted along it
# mGluR2-YADA (Y216A and D295A), sequence (P31421 19-872 Y216A/D295A): as the sequence (P31421 19-872) above, with Y198A, D277A counted along it
structure (smiles),measurement,setting,value
[Ca+2] [Ca^2+],effect on low FRET state occupancy,[1]; 0 glutamate,concentration-dependent increase in low FRET state occupancy
same,average active state lifetime,[1],183 ms
N[C@H](C(=O)O)C1[C@@H](C(=O)O)[C@@H]1C(=O)O (some centres unmarked) [DCG-IV],share of distribution remaining in the high and medium FRET states,[2]; saturating concentrations (≥100 μM),~ 30%
"COc1ccccc1Oc1ccc(N(Cc2cccnc2)S(=O)(=O)CC(F)(F)F)cc1 [LY48739, LY487379]",effect on relative occupancy of the low FRET state,[2]; in the presence of DCG-IV (1 μM),increased the relative occupancy of the low FRET state
same,effect on DCG-IV response in ensemble FRET,[3],increases the apparent affinity and efficacy of DCG-IV
N[C@@]1(C(=O)O)CO[C@H]2[C@H](C(=O)O)[C@H]21 [LY379268],occupancy of the active (low FRET) state,"[2]; saturating agonist, compared with glutamate",more complete occupancy of the active state than glutamate
N[C@@H](CCC(=O)O)C(=O)O [glutamate],maximal medium FRET occupancy,[2]; WT/WT homodimer,~ 25%
same,average active state lifetime,[1],183 ms
same,occupancy of the medium FRET state,[4],~ 55%
same,effect on the FRET histogram,[5],no effect
same,EC50,[6],500 ± 200 nM
